The values below come from PMC3566787, “Efficient synthesis of phenylene-ethynylene rods and their use as rigid spacers in divalent inhibitors” (Beilstein Journal of Organic Chemistry, 2013).

This assay has as its target T1, LecA (Pseudomonas aeruginosa, UniProt Q05097).
T1 construct: FITC-labeled LecA
Briefly: ELISA-type competition assay on a glycochip: inhibition of FITC-labeled LecA binding to a galactoside-functionalized surface. In general terms: In an ELISA, binding on a coated surface is turned into a signal by an enzyme label.

T1 sequence (Q05097 2-122): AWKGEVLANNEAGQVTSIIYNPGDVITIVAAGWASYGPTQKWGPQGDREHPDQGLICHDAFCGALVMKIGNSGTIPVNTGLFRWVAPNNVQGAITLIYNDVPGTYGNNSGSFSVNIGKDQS

Usually IC50 stands for the concentration at which inhibition is half-maximal. Low readings indicate higher potency, high ones lower potency. As for `COCCOCCOc1cc(C#Cc2cc(OCCOCCOC)c(-c3cn(CCCO[C@@H]4O[C@H](CO)[C@H](O)[C@H](O)[C@H]4O)nn3)cc2OCCOCCOC)c(OCCOCCOC)cc1C#Cc1cc(OCCOCCOC)c(-c2cn(CCCO[C@@H]3O[C@H](CO)[C@H](O)[C@H](O)[C@H]3O)nn2)cc1OCCOCCOC` [compound 22, divalent ligand 22], the IC50 worked out at 900 nM.
